Structures can show the parent of a compound that is named as a salt.
Test: Sustained release of metformin hydrochloride, ranitidine hydrochloride, vitamin B1 and benzalkonium chloride from carrier formulations into purified water, UV absorbance
Format: physicochemical
Details: released when absorbance is increased less than 0.01
Excerpt: • 1) Test samples: formulation 5, formulation 6, formulation 7, formulation 8, formulation 9; • 2) Drug release medium: purified water (Wahaha®).
• 1) group F where the sample is 0.1990 g of formulation 6 and the medium is 30.11 g of purified water; • 2) group G where the sample is 0.2016 g of formulation 5 and the medium is 30.14 g of purified water; • 3) group H where the sample is 0.2087 g of formulation 7 and the medium is 30.11 g of purified water; • 4) group I where the sample is 0.2016 g of formulation 8 and the medium is 30.12 g of purified water; • 5) group J where the sample is 0.0975 g of formulation 9 and the medium is 30.18 g of purified water.
• 1) The test samples with different formulations were respectively introduced into 2 mL-syringes. 2) About 0.2 g of the test samples, but for benzalkonium chloride about 0.1 g of the test sample, were squeezed out from the syringes without a needle into 30 mL transparent bottles respectively. The tests samples in the bottles were accurately weighed. 3) 30.0 g of the drug release medium was added to each bottle. 4) The absorbance spectrum of the liquid in each bottle was scanned and the absorbance at the wavelength of 232 nm for metformin hydrochloride, 313 nm for ranitidine hydrochloride, 261 nm for vitamin B1, or 219 nm for benzalkonium chloride was measured every 24 hours. 5) In groups H, I and J, the purified water (Wahaha®) was used as the reference solution. In groups F and G, blank carriers in formulations 2 and 3 without metformin hydrochloride were used to prepare the reference solutions according to the above steps 1) to 3) of “4. Experimental method”. The liquids to be tested and the reference solutions of groups F and G were taken from the bottles with the carriers and put back to the bottles after the spectral scanning.

| Molecule | Duration of release of the drug from the sustained-release carriers |
| --- | --- |
| CN(C)C(=N)N=C(N)N [metformin hydrochloride] | about 3 days |
| CNC(=C[N+](=O)[O-])NCCSCc1ccc(CN(C)C)o1 [ranitidine hydrochloride] | about 4 days |
| Cc1ncc(C[n+]2csc(CCO)c2C)c(N)n1 [vitamin B1] | about 4 days |
| benzalkonium chloride | about 4 days |
